Test results as given in patent US10316021B2, “Heteroarylphenoxy benzamide kappa opioid ligands” (Pfizer Inc., priority 2016, dated 2019).
Read-outs that look alike come from different tables or passages of the source.

Assays:
[1] = target: T1, human mu opioid receptor (hMOR) (Homo sapiens, UniProt P35372); test: Mu radioligand binding assay ([3H]diprenorphine, CHO cell membranes); settings: read-out: hMOR binding assay Ki
T1 construct: expressed in transfected cells; host or cells: CHO cells
Summary of the method: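 Membranes from CHO cells expressing human mu receptor were incubated 1 h at room temperature with [3H]diprenorphine (0.5 nM final) in Tris pH 7.4 buffer with EDTA and MgCl2; naltrexone (10 μM) defined non-specific binding. Filter-bound radioactivity was counted; Ki derived by Cheng-Prusoff from IC50.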

CYP3A4 = test: Single point time dependent inhibition (SPTDI) assay; assay type: in vitro ADME, human
Protocol: Single Point Time Dependent Inhibition (SPTDI) Assay:
The objective of this study was to investigate the potential of a series of carboxamides to be time dependent inactivators of CYP3A isozymes, in vitro, using midazolam and testosterone as probe substrates for CYP 3A4/5 activity incubated with pooled human liver microsomes (HLM). Pooled HLMs (0.1-1.0 mg/ml) were pre-incubated with individual carboxamides at initial substrate concentrations of 6 or 10 μM in the presence and absence of NADPH (1.3 mM). Pre-incubations (n=2/compound) were performed for 30 min at 37° C. After pre-incubation, a 10-fold dilution of the incubate (0.02 ml) was added to the probe substrate incubate (0.18 ml) containing the respective probe P450 isozyme substrate (midazolam or testosterone for CYP3A, 1 uM), and was incubated at 37° C. The combined incubation reactions were terminated and analyzed for marker substrate activity (Ex: hydroxyl metabolite of midazolam and 6β hydroxy testesterone) as described previously (Walsky and Obach, 2004; Obach et al., 2007). Terminated incubation mixtures were filtered and analyzed by liquid chromatography (LC)-tandem mass spectrometry (MS/MS) for metabolites as described previously (Walsky and Obach, 2004). To determine kobs,app values, the decrease in natural logarithm of the activity over time was plotted for each inactivator concentration, and kobs,app values were described as the negative slopes of the lines. Inactivation kinetic parameters were determined using nonlinear regression of the data to the expression in eq. 1:
[formula] Statistical significance of kobs between solvent and test incubations was inferred using analysis performed by Yates et al. (Yates P, Eng H, Di L, Obach R S. Drug Metab Dispos 2012; 40:2289-96).
Irreversible inhibition, or time-dependent inhibition (TDI) of cytochrome P450s (CYPs) is generally characterized by an increase in enzyme inhibition with respect to time and inhibitor concentration (Grimm 2009). In cases where enzyme inhibition requires metabolic turnover, the mechanism generally involves the formation of a reactive inhibitory intermediate that may irreversibly inactivate CYPs; this mechanism could cause clinical drug-drug interactions due to inhibition of the relevant CYP responsible for metabolizing the victim drug (Grimm 2009; Rowland Yeo 2011). Hazard assessment for irreversible CYP450 inhibitory potential of CYP3A was performed for several compounds in Table 22 using the single point time dependent inhibition (SPTDI) assay, which measures the pseudo-first order rate constant of inactivation (kobs) at a single high concentration (6-10 μM) of a test compound (Zimmerlin 2011). Based on the analysis performed by Yates (2008), compounds showing a kobs of >0.008 min^−1 in this assay are considered to have a potential for TDI, and kobs<0.008 min^−1 are negative or may have a very weak potential for TDI at CYP3A4.

[2] = test system: THLE-2 (transformed human liver epithelial) cells; test: Transformed human liver epithelial (THLE) assay, ATP depletion 72 h; assay type: cell-based; settings: for cytotoxicity in THLE cell line, in words: cellular ATP; for IC50: Homo sapiens, read-out: THLE
Protocol: Transformed Human Liver […] (THLE) Assay:
ATP depletion was measured after 72 hours of exposure to a particular concentration of the chemical. […] Cells were cultured in T175 Human fibronectin/collagen/bovine serum albumin coated flasks. […] Plates were incubated for 24 hours at 37° C., 5% CO2.
All compounds were initially solubilized in 100% DMSO. This dosing scheme contained 32 compounds per plate. Stock plates were prepared using 1 μl aliquots of 100× compound/well (30 mM-0.058 mM). The plates were prepared for dosing by adding 99 μl of cell culture media and mixing. Test compounds were added to cell culture plates by aspirating overnight culture media and replacing with 25 μL/well of media containing test compound using the layout outlined below. The final concentration of DMSO in each well was 1.0%. […] The ATP concentration was determined by reading luminescence using a Wallac Envision plate reader (Perkin Elmer, Waltham, Mass., USA). Percent of viable cells relative to no-drug treated controls was determined for each well.

[3] = test system: isolated rat mitochondria; test: Respirometric screening technology (RST) assay; assay type: biochemical; settings: for RST inhibitory: inhibition of oxidative phosphorylation
Protocol: Respirometric Screening Technology (RST) Assay:
This assay was carried out substantially as described in Hynes et al. Toxicological Sciences 91(1), 186-200 (2006). More specifically, the assay conditions were similar to those described for the “Fluorescence-based assay of mitochondrial respiration” at page 188-189 of the Hynes reference.
Mitochondrial dysfunction has also been noted as a characteristic feature of many chronic illnesses, including bipolar disorder, Parkinson's disease, schizophrenia, depression, autism, and chronic fatigue syndrome (Morris 2015). Mitochondrial dysfunction can be assessed by measuring mitochondrial oxygen consumption in isolated rat mitochondria using luminescent oxygen-sensitive probes in a respirometric screening technology (RST) assay (Hynes 2006); both inhibition and uncoupling of oxidative phosphorylation in the RST assay were measured for compounds in Table 23.

[4] = Table 19, geometric mean of 2-6 determinations unless otherwise indicated (Example 3: >=7)
[5] = THLE-2, ATP cell viability, 72 hours

T1 sequence (P35372 whole entry): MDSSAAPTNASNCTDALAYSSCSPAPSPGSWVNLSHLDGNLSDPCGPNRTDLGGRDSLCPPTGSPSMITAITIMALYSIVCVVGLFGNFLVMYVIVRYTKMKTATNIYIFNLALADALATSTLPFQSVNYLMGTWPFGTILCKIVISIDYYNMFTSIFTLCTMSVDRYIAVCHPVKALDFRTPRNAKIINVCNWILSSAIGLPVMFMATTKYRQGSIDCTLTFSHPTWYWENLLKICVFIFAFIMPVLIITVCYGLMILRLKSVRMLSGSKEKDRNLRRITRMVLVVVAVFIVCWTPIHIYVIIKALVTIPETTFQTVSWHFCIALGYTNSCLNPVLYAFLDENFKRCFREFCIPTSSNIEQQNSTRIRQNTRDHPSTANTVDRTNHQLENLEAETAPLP

Compound	Ki [1, 4] [µM]	Ki ([1]; Table 20, radioligand binding) [µM]	risk of time dependent inhibition (TDI) at CYP3A4, in words (CYP3A4)	risk of time dependent inhibition (TDI) at CYP3A4, in words (CYP3A4; listed as Compound 12)	SPTDI CYP3A4 kobs (CYP3A4; single high dose of 10 μM) [min⁻¹]	cytotoxicity in THLE cell line, in words ([2]; 72 hours)	IC50 [2, 5] [µM]	activity in the RST assay (inhibition / uncoupling of oxidative phosphorylation), in words [3]	RST inhibitory [3]	risk of time dependent inhibition (TDI) at CYP3A4, in words (CYP3A4; listed as Compound 8)	IC50 ([2]; THLE-2, 72 h) [µM]	SPTDI CYP3A4 kobs (CYP3A4; single dose of 6 μM)	SPTDI kobs at CYP3A4 (CYP3A4; tested at 6 μM) [min⁻¹]	SPTDI kobs at CYP3A4 (CYP3A4; tested at 10 μM) [min⁻¹]	risk of time dependent inhibition (TDI) at CYP3A4, in words (CYP3A4; listed as Compound 11)
COc1nn(C)cc1[C@@H]1CCCN1Cc1ccc(Oc2ccc(C(N)=O)cc2)cc1 (single isomer, unassigned) [Example 12]	0.0462	0.046	low to no significant risk for TDI at CYP3A4	not time dependent inactivators of CYP3A4	0.0042	little to no cytotoxicity	> 300	no significant activity	No effect	–	–	–	–	–	–
COc1nn(C)cc1C1CCCN1Cc1ccc(Oc2ccc(C(N)=O)cc2F)cc1 (single isomer, unassigned; (-)) [Example 8, (−)-3-Fluoro-4-(4-{[2-(3-methoxy-1-methyl-1H-pyrazol-4-yl)pyrrolidin-1-yl]methyl}phenoxy)benzamide]	0.0987	0.099	low to no significant risk for TDI at CYP3A4	–	0.0044	little to no cytotoxicity	> 300	no significant activity	No effect	not time dependent inactivators of CYP3A4	–	–	–	–	–
NC(=O)c1ccc(Oc2ccc(CN3CCC(c4ccccc4)C3)cc2)nc1 (stereo not shown) [Comparator A, reference compound]	–	0.0001	–	–	–	–	> 300	–	–	–	–	–	–	–	–
NC(=O)c1ccc(Oc2ccc(CN3CCCCC3c3ccccc3)cc2)nc1 (stereo not shown) [Comparator B]	–	–	–	–	0.0041	–	224	–	No effect	–	–	–	–	–	–
NC(=O)c1ccc(Oc2ccc(CN3CCCC3c3cccnc3)cc2)c(Cl)c1 (stereo not shown) [Comparator C]	–	0.021	–	–	–	–	177	μM inhibitory activity	21 µM	–	–	–	–	–	–
NC(=O)c1ccc(Oc2ccc(CN3CCCC3c3ccccc3)cc2)nc1 (stereo not shown) [Comparator D]	–	0.163	–	–	0.0065	–	–	–	No effect	–	179	–	–	–	–
Cc1cc(C)cc([C@@H]2CCCN2Cc2ccc(Oc3ccc(C(N)=O)cc3F)cc2)c1 [Comparator E, reference compound]	–	0.0078	potential risk of CYP3A4 TDI	–	–	cytotoxicity at lower concentrations	26	μM inhibitory activity	19 µM	–	–	0.0113^2 min−1	0.011	–	–
NC(=O)c1ccc(Oc2ccc(CN3CCC[C@H]3c3cccc(F)c3)cc2)c(F)c1 [Comparator F]	–	0.0375	potential risk of CYP3A4 TDI	–	0.0133	cytotoxicity at lower concentrations	–	–	66 µM	–	37	–	–	0.0133	–
Cc1nn(C)cc1[C@@H]1CCCN1Cc1ccc(Oc2ccc(C(N)=O)cc2)cc1 [Example 11, 4-(4-{[(2S)-2-(1,3-Dimethyl-1H-pyrazol-4-yl)pyrrolidin-1-yl]methyl}phenoxy)benzamide]	0.051	0.051	low to no significant risk for TDI at CYP3A4	–	0.0055	little to no cytotoxicity	–	no significant activity	No effect	–	> 300	–	–	–	not time dependent inactivators of CYP3A4
